One series concerns H1975 NSCLC tumors. The procedure:
(§1) Seventy and sixty female athymic nude mice were obtained for each H1975 Non-Small Cell Lung Cancer Xenograft study and split into treatment groups consisting of 10 animals per group (2 cages of 5 mice per cage).
Description of H1975 NSCLS test material: Human H1975 NSCLC cell line (originally from ATCC) suspension was mixed 1:1 with Matrigel at 5×10^7 cells/ml (5×10^6 cells delivered per 100 μl injection) and kept on ice until inoculation.
For the NSCLC studies, solutions were prepared in two lots (once per 2 weeks) to ensure that fresh solutions were used throughout the study.
Preparation and inoculation of tumor cells: The night before inoculation, the Matrigel was placed on ice in the refrigerator to thaw. Prior to the start of cell harvesting, a supply of pipettes, tubes and tips were placed into the freezer so that they were cold when it was time to work with the Matrigel. One ml syringes and ½″ 23 G needles were also pre-chilled. This step was necessary to prevent premature solidification of Matrigel, which becomes solid at room temperature or higher (i.e., 37° C.).
H1975 cell suspension was prepared immediately before tumor inoculation in PBS. H1975 cells at passage 16 were harvested from forty 150 mm diameter dishes and diluted to 10×10^7 cells/ml in PBS (5.87 ml). Just prior to inoculation, using pre-chilled tips and tubes, 4.5 ml of this cell suspension was mixed with an equal volume of Matrigel (1:1) to a total volume of 9 mL Cell suspensions were kept on ice. The final concentration of cells was […].
Prior to inoculation of mice, the tumor cell-Matrigel mixture was carefully mixed by inverting the tube several times. A pre-chilled 1 nil syringe was filled with tumor cell-Matrigel mixture and then a pre-chilled ½″ 23 G capped needle was attached to the end of syringe to perform the injection. The closed filled syringe was inverted several times and then 100 μl of the cell-Matrigel mixture was inoculated subcutaneously into the left flank of each mouse.
For inoculation, mice were anesthetized with isoflurane (3-4% induction in 100% O2, 1-2% maintenance) to aid in proper subcutaneous inoculation.
(§2) Tumor Size Measurements: Tumor size was measured by digital caliper in two dimensions (in mm): maximum length (l) and maximum width (w) taken perpendicular to one another. The measurements were used to calculate tumor volume according to the formula: tumor volume=(l×w2)/2 (w<l). The value obtained by this formula is also equal to the mass of the tumor in mg. Starting 2 days after tumor implantation, tumor measurements were made every 2-3 days prior to treatment initiation and then twice per week (e.g., on Day 1 (D1, the day of treatment initiation), D4, D8, D11, D15, D18, D22, D25, D29, D32, D36, D39, D43, D46, D50, D53 and D57). Tumor measurements were collected more frequently when tumor size approached the tumor size endpoint in order to prevent passing the endpoint between scheduled measurements.
(§3) Administration of test and control articles: Mice were administered the designated solutions when the mean tumor volume per treatment group was ˜45-200 mm^3.
For all groups, Q4 d dosing was performed on D1, 05, 09, 013, 017, 021, 025, and 029 of the study. For groups that received only one drug rather than both, the vehicle for the drug that was not given was administered in its place as a mock administration. The volume of dosing solution administered ip or iv was 8 ml/kg mouse body weight. Intravenous injections were performed via the tail vein. Administration of drugs was done slowly without force on the syringe.
Monitoring and Sample Collection: Twice daily, mice were monitored for mortality and morbidity for the duration of the experiment. […] All abnormal observations were documented and semi-quantitative scores were assigned for “body condition,” “posture,” and “activity.” Scores of 4, 3, 2, and 1 were assigned to normal conditions (4), and slightly (3), moderately (2) and severely (1) abnormal conditions, respectively.

Series [1] has as its system patient-derived PDA #13590 tumors. Kind of series: PDA #13590 study: CBL0137/gemcitabine against patient-derived pancreatic tumor engrafts. Format: in vivo, SCID mice.
From the text: as §1
(§4) Preparation and subcutaneous implantation of tumor pieces: HepG2 tumors (passage 2 for HepG2 study and passage 1 for HepG2 (sub-dose CLB0137) study) or Hep3B tumors (passage 1 for Hep3B study and passage 9 for Hep3B (sub-dose CLB0137) study) were propagated in athymic nude mice and harvested from euthanized mice when they reached ˜500-900 mm^3. PDA tumors (passage 6) were propagated in SCID mice (both flanks) and harvested from euthanized mice when they reached ˜600-700 mm^3 in size. Harvested tumors were transferred to a sterile Petri dish containing RPMI-10% FBS medium or D-PBS plus penicillin/streptomycin. Enough media was added to bathe the tumor in order to ensure the viability of the transplant material. Tumors were dissected into 2 mm×2 mm cubes using a sterile scalpel. Care was taken to make the pieces as uniform in size and shape as possible. Tumor pieces were implanted into recipient mice immediately after being prepared.
as §2, §3
The volume of dosing solution administered ip or iv was 8 ml/kg mouse body weight. Intravenous injections were performed via the tail vein. Administration of drugs was done slowly without force on the syringe.
Monitoring and Sample Collection: Twice daily, mice were monitored for mortality and morbidity for the duration of the experiment. […] All abnormal observations were documented and semi-quantitative scores were assigned for “body condition,” “posture,” and “activity.” Scores of 4, 3, 2, and 1 were assigned to normal conditions (4), and slightly (3), moderately (2) and severely (1) abnormal conditions, respectively. Cages were taken to a laminar flow hood and opened in order to clearly assess mouse activity.
Data analysis: For all study groups, maximum tumor growth inhibition was calculated for Day 11, 13, or 15 (Day X). […] For each tumor, relative tumor size was calculated relative to its size on Day 1 when treatment was initiated (i.e., fold tumor growth). To calculate the maximum tumor growth inhibition for each tumor, the following equation was used: 100−(fold tumor growth drug-treated Day X/mean fold tumor growth vehicle-treated Day X)*100. Differences in tumor sizes between groups were determined using ANOVA analysis (GraphPad Prism 5 Software) where “*” refers to P=0.01-0.05 (significant), “**” refers to P=0.001-0.01 (very significant) and “***” refers to P<0.001 (extremely significant), Differences that were not statistically significant are indicated with “ns”. […] Tumor growth delay (T−C) was calculated by subtracting the median time for the control to reach the 1000 mm^3 size endpoint from that of the median time for the treated groups to reach the size endpoint.

Series [2] deals with patient-derived PDA #13756 tumors. Nature of the series: PDA #13756 study: CBL0137/gemcitabine against patient-derived pancreatic tumor engrafts. Type of series: in vivo, SCID mice.
From the text: as §1, §4, §2, §3
The volume of dosing solution administered ip or iv was 8 ml/kg mouse body weight. Intravenous injections were performed via the tail vein. […]
Monitoring and Sample Collection: Twice daily, mice were monitored for mortality and morbidity for the duration of the experiment. […] All abnormal observations were documented and semi-quantitative scores were assigned for “body condition,” “posture,” and “activity.” Scores of 4, 3, 2, and 1 were assigned to normal conditions (4), and slightly (3), moderately (2) and severely (1) abnormal conditions, respectively. […]
Data analysis: For all study groups, maximum tumor growth inhibition was calculated for Day 11, 13, or 15 (Day X). […] For each tumor, relative tumor size was calculated relative to its size on Day 1 when treatment was initiated (i.e., fold tumor growth). […] Differences in tumor sizes between groups were determined using ANOVA analysis (GraphPad Prism 5 Software) where “*” refers to P=0.01-0.05 (significant), “**” refers to P=0.001-0.01 (very significant) and “***” refers to P<0.001 (extremely significant), Differences that were not statistically significant are indicated with “ns”. […] Tumor growth delay (T−C) was calculated by subtracting the median time for the control to reach the 1000 mm^3 size endpoint from that of the median time for the treated groups to reach the size endpoint.

The subject of a further series is A549. Nature of the series: A549 engraft experiment. Format: in vivo. The conditions noted are these: one engraft experiment.

Where two headings read alike, the source gives them in different places.

In the case of `Nc1ccn([C@@H]2O[C@H](CO)[C@@H](O)C2(F)F)c(=O)n1` [gemcitabine], the “median time to reach endpoint” value in the series on H1975 NSCLC tumors (2000 mm^3 size endpoint, vehicle 15.6 days) is recorded as 47.8 days. In the series with H1975 NSCLC tumors (Day 5, vehicle 1/9), the “individual tumors smaller than at start of treatment on Day 1” value is 9/10. For the same molecule, the values for the tumor growth inhibition in the series with H1975 NSCLC tumors (Day 15) and in the series on H1975 NSCLC tumors (Day 22) were 88.8% and 82.6%, respectively. Moreover, the “mean fold tumor growth” value in the series with H1975 NSCLC tumors (Day 15, vehicle 8.52-fold) came out at 0.958 fold; in the series with H1975 NSCLC tumors (Day 22, CBL0137 70 mg/kg iv Q4d, gemcitabine 40 mg/kg ip Q4d, vehicle 15.2), 2.7 fold; in the series on H1975 NSCLC tumors (Day 39) it was 3.66 fold; in series [1] (Day 57), 7.91±2.7 fold; in series [1] (Day 71), 12.98±3.9 fold; in series [2] (Day 15, gemcitabine 40 mg/kg ip Q4d, CBL0137 80 mg/kg iv 1×/wk, 4 weeks), 0.55 fold. In series [2] (Day 54), the “mean fold tumor growth” value is 26.7 fold. For the same molecule, the “delay in tumor growth (relative to vehicle treatment)” value in the series with H1975 NSCLC tumors (mouse, in vivo) worked out at 32.2 days. Besides, the signs of morbidity entry in the series on H1975 NSCLC tumors (mouse, in vivo) is given as “no signs of morbidity”. In addition, in the series with H1975 NSCLC tumors (mouse, in vivo), the “toxicity, cage-side observations” value is recorded as “None of the cage-side observations were indicative of any toxicity”. For the same molecule, the “median survival time (MST)” value in the series with H1975 NSCLC tumors (vehicle 16 days) amounted to 48.5 days; in the series with H1975 NSCLC tumors (vehicle 22 days), 51.5 days; in series [1] (vehicle 46 days, study end Day 88), 76.5 days. Further, the “individual tumors showing regression or disappeared” value in series [1] (Day 29, vehicle 1/9) is 6/6. In addition, in series [1] (Day 88, vehicle 0/5), the “animals surviving to the end of the study” value was “¼”. Also, the “antitumor efficacy (in words)” value in series [1] (PDA #13590) is listed as “effective against PDA #13590 tumor growth as single agents”. In series [2] (Day 29), the “tumor growth (in words)” value was “regression of all tumors”. In series [2] (by Day 15), the “individual tumors regressed or disappeared” value was 8/10. Besides, the animal survival time in series [2] (gemcitabine 40 mg/kg ip Q4d, CBL0137 80 mg/kg iv 1×/wk) stood at 54 days. The “response of A549 in engraft experiment (in words)” value in the series with A549 is on record as “resistant to gemcitabine”.

Values taken from patent publication US10434086B2, “Combination therapies with curaxins” (Incuron, Inc., priority 2014, dated 2019).
